ChEMBL document CHEMBL1201862, “PubChem BioAssay data set” (2004)
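A five-concentration, 48-hour dose response in 96-well plates underlies each endpoint, interpolated linearly between surrounding concentrations. Here, GI50 denotes the concentration required for 50% inhibition of growth.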 Calls of active or inactive are those of the source. Cut-off read from the data, not from the text of the source: active = GI50 up to about 1.1 µM and inactive = higher.

Legend:
Test in all cases: inhibition of tumour cell growth, NCI panel, 48 h
Malme-3M = test system: Malme-3M
LOX IMVI = test system: LOX IMVI
MOLT-4 = test system: MOLT-4
OVCAR-4 = test system: OVCAR-4
A549 = test system: A549
KM12 = test system: KM12
BT-549 = test system: BT-549
HCT-116 = test system: HCT-116
COLO 205 = test system: COLO 205
SK-OV-3 = test system: SK-OV-3
NCI/ADR-RES = test system: NCI/ADR-RES
M14 = test system: M14
RXF 393 = test system: RXF 393
TK-10 = test system: TK-10
786-0 = test system: 786-0
MDA-N = test system: MDA-N
SF-295 = test system: SF-295
CCRF-CEM = test system: CCRF-CEM
K562 = test system: K562

Measured: GI50

CCOC(=O)/C(C#N)=C/c1ccnc2ccccc12
inactive: Malme-3M 37.1 µM | LOX IMVI 15.6 µM | MOLT-4 63.5 µM | OVCAR-4 > 100 µM | A549 > 100 µM | KM12 32.5 µM | BT-549 50.5 µM | HCT-116 2.19 µM | COLO 205 > 100 µM | SK-OV-3 > 100 µM | NCI/ADR-RES 13.5 µM | M14 56.9 µM | RXF 393 > 100 µM | TK-10 > 100 µM | 786-0 61.9 µM | MDA-N > 100 µM | SF-295 93.1 µM

NC(CCC(=O)c1ccccn1)C(=O)O (configuration not stated)
inactive: Malme-3M > 100 µM | LOX IMVI > 100 µM | MOLT-4 > 100 µM | OVCAR-4 > 100 µM | A549 > 100 µM | KM12 > 100 µM | CCRF-CEM > 100 µM | BT-549 > 100 µM | HCT-116 > 100 µM | COLO 205 > 100 µM | SK-OV-3 > 100 µM | NCI/ADR-RES > 100 µM | M14 > 100 µM | RXF 393 > 100 µM | TK-10 > 100 µM | 786-0 > 100 µM | MDA-N > 100 µM | SF-295 > 100 µM

N#CC(C#N)=CNC(N)=S
inactive: Malme-3M > 100 µM | LOX IMVI > 100 µM | MOLT-4 > 100 µM | OVCAR-4 > 100 µM | A549 > 100 µM | K562 > 100 µM | KM12 > 100 µM | CCRF-CEM > 100 µM | BT-549 > 100 µM | HCT-116 > 100 µM | COLO 205 > 100 µM | SK-OV-3 > 100 µM | NCI/ADR-RES > 100 µM | M14 > 100 µM | RXF 393 > 100 µM | 786-0 > 100 µM | MDA-N > 100 µM | SF-295 > 100 µM

CN(C)Nc1cc(=O)[nH]c(=O)[nH]1
inactive: Malme-3M > 100 µM | LOX IMVI > 100 µM | MOLT-4 > 100 µM | OVCAR-4 > 100 µM | A549 > 100 µM | K562 > 100 µM | KM12 > 100 µM | CCRF-CEM > 100 µM | BT-549 > 100 µM | HCT-116 > 100 µM | COLO 205 > 100 µM | NCI/ADR-RES > 100 µM | M14 > 100 µM | RXF 393 > 100 µM | TK-10 > 100 µM | 786-0 > 100 µM | MDA-N > 100 µM | SF-295 > 100 µM

O=c1[nH]cnc2c1ncn2C1SC(CO)C(O)C1O (configuration not stated)
inactive: Malme-3M > 100 µM | LOX IMVI > 100 µM | MOLT-4 > 100 µM | OVCAR-4 > 100 µM | A549 > 100 µM | K562 > 100 µM | KM12 > 100 µM | CCRF-CEM > 100 µM | BT-549 > 100 µM | HCT-116 > 100 µM | COLO 205 > 100 µM | SK-OV-3 > 100 µM | NCI/ADR-RES > 100 µM | M14 > 100 µM | RXF 393 > 100 µM | TK-10 > 100 µM | 786-0 > 100 µM | MDA-N > 100 µM | SF-295 > 100 µM

CO[C@@H]1O[C@H](C(=O)c2ccccc2)[C@H]2OC(C)(C)O[C@@H]12
inactive: LOX IMVI > 100 µM | MOLT-4 > 100 µM | OVCAR-4 > 100 µM | K562 > 100 µM | KM12 > 100 µM | CCRF-CEM 49.7 µM | BT-549 68.9 µM | HCT-116 75.3 µM | COLO 205 > 100 µM | SK-OV-3 > 100 µM | NCI/ADR-RES 74.1 µM | M14 > 100 µM | RXF 393 > 100 µM | TK-10 > 100 µM | 786-0 > 100 µM | MDA-N > 100 µM | SF-295 > 100 µM

Cc1ccc(NC(=O)CC(=O)N2N=C(N3CCCCC3)CC2c2ccccc2)cc1 (configuration not stated)
inactive: Malme-3M > 100 µM | LOX IMVI > 100 µM | MOLT-4 > 100 µM | OVCAR-4 > 100 µM | A549 > 100 µM | KM12 > 100 µM | CCRF-CEM > 100 µM | BT-549 > 100 µM | HCT-116 > 100 µM | COLO 205 > 100 µM | NCI/ADR-RES > 100 µM | M14 > 100 µM | RXF 393 > 100 µM | TK-10 > 100 µM | 786-0 > 100 µM | MDA-N > 100 µM | SF-295 > 100 µM

CC(C)(C)OC(=O)/C=C/[C@@H](CCC(=O)/C=C/[C@H](/C=C\CCCC(=O)O)NC1(c2ccccc2)c2ccccc2-c2ccccc21)O[Si](C)(C)C(C)(C)C
inactive: LOX IMVI 13.8 µM | MOLT-4 9.16 µM | OVCAR-4 17.1 µM | A549 14.3 µM | K562 16 µM | KM12 18.1 µM | CCRF-CEM 29.2 µM | BT-549 16.5 µM | HCT-116 13.6 µM | COLO 205 21.5 µM | SK-OV-3 46.6 µM | NCI/ADR-RES 10.8 µM | M14 14 µM | RXF 393 11.5 µM | TK-10 24.8 µM | 786-0 16.1 µM | MDA-N 17.1 µM | SF-295 15.5 µM
